What was measured:
[1] = tested on: salivary bacteria biofilm; assay: In vitro biofilm assay (salivary bacteria on saliva-treated hydroxyapatite discs); format: cell-based
Description: Biofilms were prepared and tested by a modified method from Guggenheim (Guggenheim B., Gierstein E., Schupbach P, Shapiro S., 2001. “Validation of an in vitro biofilm model of supragingival plaque” Journal Dental Research 80:363-370), which is herein incorporated by reference. Briefly, biofilms were grown by incubating salivary bacteria with saliva-treated hydroxyapatite (HA) discs in sterile 24 well cell culture plates. Using media supplemented with saliva (25% total volume), and transferring discs frequently during the growth phase, encouraged growth of a dental plaque-like biofilm. This was developed for up to 72 hours. The biofilm was exposed to the test compositions (set forth in Table 1) three times a day, for five minutes, on days two and three of the experiment. Biofilm was quantified turbidometrically and by spectrophometric absorption at 600 nm.
The number of CFU for each biofilm was determined as follows. After vigorous shaking, 0.1 ml of the liquid from each biofilm cell was pipetted into 10 ml reverse osmosis (RO) H2O (100× dilution). The 100× dilution was shaken, and 0.1 ml was pipetted into 10 ml RO H2O (10,000× dilution). […] After the growth period, the number of colonies of bacteria growing on each plate were counted. […]
The IC40 of MBE was determined, and was used as a positive control concentration.

salivary bacteria = assay: Inhibition of biofilm formation on saliva-precoated pegs (Calgary device), MBIC/FBIC; format: cell-based
Description: 80 ml of saliva was collected from 4 donors and centrifuged at 3800 rpm to remove food debris. 15 ml supernatant was removed and mixed with an equal volume of 1×PBS. The mixture was then filter sterilized to collect saliva proteins that were used to precoat suspended pegs in the lid of the Calgary device for 3 hours. Meanwhile, the remaining saliva was centrifuged at 10,000 rpm to collect bacteria for biofilm inoculum. After centrifugation, the pellet was resuspended to an OD600 of 0.05 and premixed with defined concentrations of LAE-CF (99% purity, from Vedeqsa), MBE and a combination of the two actives at predetermined ratios. The actives and inoculum were added to the saliva precoated pegs and incubated overnight for at least 16 hours to allow for biofilm formation. Controls included growth (no actives) and media only (no bacteria).
The efficacy of the LAE and MBE synergistic effects are shown in the minimal biofilm inhibitory concentrations (MBIC) and fractional biofilm inhibitory concentration (FBIC) for the two actives. The FBIC was calculated according to the following formula: FBIC=[QA/Qa+QB/Qb] where
QA=the MBIC of component A combined with component B.
Qa=the MBIC of component A alone.
QB=the MBIC of component B combined with component A.
Qb=the MBIC of component B alone. […]

Compound: CCCCCCCCCCCC(=O)N[C@@H](CCCNC(=N)N)C(=O)OCC [LAE, L-arginine, N^α-lauroyl ethyl ester]
- inhibition at 1000 ppm ([1]; 5 min, 1000 ppm, biofilm exposed 5 min three times a day on days 2 and 3): 82%
- percent inhibition compared to the positive control ([1]; positive control = MBE at IC40): not better than the positive control
- FBIC (fractional biofilm inhibitory concentration) (salivary bacteria; FBIC=QA/Qa+QB/Qb, <1 synergistic): 1
- MBIC (minimal biofilm inhibitory concentration) (salivary bacteria; active alone, overnight at least 16 hours): 125 ppm

From patent US10265367B2, “Synergistic antibacterial effects of magnolia bark extract and L-arginine, N-α-lauroyl ethyl ester on plaque biofilm” (WM. WRIGLEY JR. COMPANY, priority 2015, dated 2019)
